What all share (format): ADME
Data set [1] has as its target T1, CYP3A4 (Homo sapiens, UniProt P08684). Put plainly: Inhibition of CYP3A4 in human liver microsomes assessed as enzyme-mediated metabolite formation at 3 uM using testosterone as substrate preincubated for 20 mins followed by substrate addition measured after 30 mins in presence of NADPH by LC-MS/MS analysis relative to control. Further details: scale not given: the % may be the effect or the level left. Particulars: probe testosterone, read-out: Activity.

The target of data set [2] is T2, Cytochrome P450 3A4 (Homo sapiens, UniProt P08684). Put plainly: Inhibition of CYP3A4 in human liver microsomes using testosterone as substrate preincubated for 20 mins followed by substrate addition measured after 30 mins in presence of NADPH by LC-MS/MS analysis. In general terms: Liver microsomes are a subcellular fraction often used to study metabolism.
For data set [3], the target named is T3, CYP2A6 (Homo sapiens, UniProt P11509).
T3 sequence (P11509 whole entry): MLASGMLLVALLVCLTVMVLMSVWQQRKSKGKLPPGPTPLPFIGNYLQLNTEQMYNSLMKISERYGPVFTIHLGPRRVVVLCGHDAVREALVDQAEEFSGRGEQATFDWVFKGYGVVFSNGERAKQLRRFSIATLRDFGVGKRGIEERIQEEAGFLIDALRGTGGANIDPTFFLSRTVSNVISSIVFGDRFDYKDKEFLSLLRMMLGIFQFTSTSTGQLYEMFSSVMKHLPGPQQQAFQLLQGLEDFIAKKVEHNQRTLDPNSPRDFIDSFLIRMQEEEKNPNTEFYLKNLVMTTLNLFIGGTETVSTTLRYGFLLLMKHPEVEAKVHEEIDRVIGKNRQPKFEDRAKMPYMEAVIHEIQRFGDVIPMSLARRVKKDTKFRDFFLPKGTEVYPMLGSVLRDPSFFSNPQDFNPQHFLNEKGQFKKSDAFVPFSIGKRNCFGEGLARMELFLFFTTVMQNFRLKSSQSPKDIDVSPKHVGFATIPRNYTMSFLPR
Briefly: Inhibition of CYP2A6 in human liver microsomes assessed as enzyme-mediated metabolite formation at 3 uM using coumarin as substrate incubated for 5 mins followed by NADPH addition measured after 30 mins by LC-MS/MS analysis relative to control. Further details: scale not given: the % may be the effect or the level left. Particulars: probe coumarin, read-out: Activity.

For data set [4], the target named is T2, Cytochrome P450 3A4. Briefly: Inhibition of CYP3A4 in human liver microsomes assessed as enzyme-mediated metabolite formation using midazolam as substrate incubated for 5 mins followed by NADPH addition measured after 30 mins by LC-MS/MS analysis.
Data set [5] deals with T4, CYP1A2 (Homo sapiens, UniProt P05177).
T4 sequence (P05177 whole entry): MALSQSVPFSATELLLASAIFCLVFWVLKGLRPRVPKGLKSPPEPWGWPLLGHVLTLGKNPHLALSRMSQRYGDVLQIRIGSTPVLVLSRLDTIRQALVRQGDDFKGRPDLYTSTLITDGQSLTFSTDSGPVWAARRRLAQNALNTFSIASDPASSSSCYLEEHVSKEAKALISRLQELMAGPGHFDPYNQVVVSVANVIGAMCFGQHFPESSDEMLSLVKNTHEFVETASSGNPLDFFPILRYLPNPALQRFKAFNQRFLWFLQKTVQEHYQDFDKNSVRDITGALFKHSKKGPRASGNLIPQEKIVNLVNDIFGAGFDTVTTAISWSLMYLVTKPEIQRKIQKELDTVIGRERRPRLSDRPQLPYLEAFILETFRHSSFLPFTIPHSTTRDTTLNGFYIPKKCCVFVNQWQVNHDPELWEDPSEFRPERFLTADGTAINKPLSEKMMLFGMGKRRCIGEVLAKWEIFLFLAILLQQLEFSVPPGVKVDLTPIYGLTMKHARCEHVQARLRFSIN
Put plainly: Inhibition of CYP1A2 in human liver microsomes assessed as enzyme-mediated metabolite formation at 0.3 uM using phenacetin as substrate incubated for 5 mins followed by NADPH addition measured after 30 mins by LC-MS/MS analysis relative to control. Further details: scale not given: the % may be the effect or the level left. Particulars: probe phenacetin, read-out: Activity.

Another data set concerns the target CYP2C9 (Homo sapiens, UniProt P11712). Briefly: Inhibition of CYP2C9 in human liver microsomes assessed as enzyme-mediated metabolite formation at 3 uM using diclofenac as substrate preincubated for 20 mins followed by substrate addition measured after 30 mins in presence of NADPH by LC-MS/MS analysis relative to control. Details: scale not given: the % may be the effect or the level left. Particulars: probe diclofenac, read-out: Activity.

In the next data set the target is T5, CYP2C8 (Homo sapiens, UniProt P10632).
T5 sequence (P10632 whole entry): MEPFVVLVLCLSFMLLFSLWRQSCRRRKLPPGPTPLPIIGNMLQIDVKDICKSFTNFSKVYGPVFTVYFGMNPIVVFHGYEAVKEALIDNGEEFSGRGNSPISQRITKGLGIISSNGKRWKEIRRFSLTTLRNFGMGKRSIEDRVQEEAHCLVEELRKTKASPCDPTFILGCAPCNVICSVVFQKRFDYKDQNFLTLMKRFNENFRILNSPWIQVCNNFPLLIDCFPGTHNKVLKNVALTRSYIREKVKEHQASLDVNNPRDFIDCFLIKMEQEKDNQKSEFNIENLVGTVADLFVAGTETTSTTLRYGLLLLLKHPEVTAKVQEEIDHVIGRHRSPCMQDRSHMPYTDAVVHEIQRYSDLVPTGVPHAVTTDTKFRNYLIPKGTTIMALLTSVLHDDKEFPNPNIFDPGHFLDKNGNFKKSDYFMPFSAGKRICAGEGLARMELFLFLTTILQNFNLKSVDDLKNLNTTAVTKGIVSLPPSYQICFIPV
Put plainly: Inhibition of CYP2C8 in human liver microsomes assessed as enzyme-mediated metabolite formation at 0.1 uM using paclitaxel as substrate preincubated for 20 mins followed by substrate addition measured after 30 mins in presence of NADPH by LC-MS/MS analysis relative to control. As to conditions: probe paclitaxel, read-out: Activity. Details: scale not given: the % may be the effect or the level left.

Data set [6] concerns the target T1, CYP3A4. Put plainly: Inhibition of CYP3A4 in human liver microsomes assessed as enzyme-mediated metabolite formation at 30 uM using midazolam as substrate preincubated for 20 mins followed by substrate addition measured after 30 mins in presence of NADPH by LC-MS/MS analysis relative to control. As to conditions: probe midazolam, read-out: Activity. Further details: scale not given: the % may be the effect or the level left.

In data set [7] the target is T4, CYP1A2. Put plainly: Inhibition of CYP1A2 in human liver microsomes assessed as enzyme-mediated metabolite formation at 3 uM using phenacetin as substrate incubated for 5 mins followed by NADPH addition measured after 30 mins by LC-MS/MS analysis relative to control. Particulars: probe phenacetin, read-out: Activity. Further details: scale not given: the % may be the effect or the level left.

A further data set has as its target CYP2C19 (Homo sapiens, UniProt P33261). Briefly: Inhibition of CYP2C19 in human liver microsomes assessed as enzyme-mediated metabolite formation at 0.1 uM using (S)-mephenytoin as substrate preincubated for 20 mins followed by substrate addition measured after 30 mins in presence of NADPH by LC-MS/MS analysis relative to control. Details: scale not given: the % may be the effect or the level left. As to conditions: probe (S)-mephenytoin, read-out: Activity.

Data set [8] concerns the target T3, CYP2A6. Put plainly: Inhibition of CYP2A6 in human liver microsomes assessed as enzyme-mediated metabolite formation at 1 uM using coumarin as substrate preincubated for 20 mins followed by substrate addition measured after 30 mins in presence of NADPH by LC-MS/MS analysis relative to control. As to conditions: probe coumarin, read-out: Activity. Further details: scale not given: the % may be the effect or the level left.

The source of these data is ChEMBL document CHEMBL4007467, “Effects of 6-paradol, an unsaturated ketone from gingers, on cytochrome P450-mediated drug metabolism” (Bioorg Med Chem Lett, 2017).

In general, IC50 refers to the concentration needed to halve the response being measured.

T2 sequence (P08684 whole entry): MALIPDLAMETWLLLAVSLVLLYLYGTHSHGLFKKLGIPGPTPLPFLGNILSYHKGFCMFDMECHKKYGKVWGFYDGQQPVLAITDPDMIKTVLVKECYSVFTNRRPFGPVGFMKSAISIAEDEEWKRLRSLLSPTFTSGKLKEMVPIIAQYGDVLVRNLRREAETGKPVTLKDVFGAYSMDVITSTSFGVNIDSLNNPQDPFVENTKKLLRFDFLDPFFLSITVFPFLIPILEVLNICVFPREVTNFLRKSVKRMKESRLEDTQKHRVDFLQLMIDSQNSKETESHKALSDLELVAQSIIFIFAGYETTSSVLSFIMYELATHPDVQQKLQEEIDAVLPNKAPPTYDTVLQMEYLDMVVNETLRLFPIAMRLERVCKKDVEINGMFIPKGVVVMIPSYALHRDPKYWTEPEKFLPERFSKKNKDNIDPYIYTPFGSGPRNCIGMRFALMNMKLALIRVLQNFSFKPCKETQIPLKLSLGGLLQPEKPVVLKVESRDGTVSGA
T1 sequence (P08684 whole entry): as above
Sequence of CYP2C9 (P11712 whole entry): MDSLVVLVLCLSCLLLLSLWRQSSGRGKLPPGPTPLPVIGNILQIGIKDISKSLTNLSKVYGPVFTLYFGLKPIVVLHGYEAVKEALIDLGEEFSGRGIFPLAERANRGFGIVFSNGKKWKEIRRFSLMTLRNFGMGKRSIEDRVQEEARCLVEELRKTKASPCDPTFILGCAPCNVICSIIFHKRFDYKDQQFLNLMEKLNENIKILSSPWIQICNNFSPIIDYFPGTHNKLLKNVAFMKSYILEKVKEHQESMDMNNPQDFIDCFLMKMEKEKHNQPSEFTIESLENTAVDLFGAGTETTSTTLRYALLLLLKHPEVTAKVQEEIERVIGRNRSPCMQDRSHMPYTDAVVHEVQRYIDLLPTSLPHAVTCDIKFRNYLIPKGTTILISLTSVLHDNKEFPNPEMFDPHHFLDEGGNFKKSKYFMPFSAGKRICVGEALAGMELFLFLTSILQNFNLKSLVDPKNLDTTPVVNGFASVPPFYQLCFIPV
Sequence of CYP2C19 (P33261 whole entry): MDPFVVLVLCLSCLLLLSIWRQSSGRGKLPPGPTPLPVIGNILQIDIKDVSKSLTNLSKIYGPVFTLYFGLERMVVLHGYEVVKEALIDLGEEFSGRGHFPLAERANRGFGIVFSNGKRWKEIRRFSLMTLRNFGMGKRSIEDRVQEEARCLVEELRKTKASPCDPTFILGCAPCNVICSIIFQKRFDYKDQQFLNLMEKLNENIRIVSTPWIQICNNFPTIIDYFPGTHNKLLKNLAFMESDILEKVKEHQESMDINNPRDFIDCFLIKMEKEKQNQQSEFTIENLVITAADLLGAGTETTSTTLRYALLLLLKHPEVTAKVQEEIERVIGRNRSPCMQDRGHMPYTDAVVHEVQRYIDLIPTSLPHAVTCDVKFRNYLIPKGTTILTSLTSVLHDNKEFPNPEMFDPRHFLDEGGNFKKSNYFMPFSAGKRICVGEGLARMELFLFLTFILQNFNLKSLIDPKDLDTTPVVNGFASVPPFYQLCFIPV

Regarding `CCCCCCCC(=O)CCc1ccc(O)c(OC)c1`, the activity at 0.5 h, 3 µM on CYP3A4 [1] was 95.8%; at CYP2A6 [3], 80.8%; at CYP2C9, 78.8%; at CYP1A2 [7], 72%. Also, the IC50 at Cytochrome P450 3A4 [2] and at Cytochrome P450 3A4 [4] was > 30 µM in each case. Besides, the activity at 0.5 h, 0.3 µM on CYP1A2 [5] was 97.8%. The activity at 0.5 h, 0.1 µM on CYP2C8 was found to be 83.2%; on CYP2C19 it was 102%. On CYP3A4 [6], the activity at 0.5 h, 30 µM is 97.6%. Also, at CYP2A6 [8], the activity at 0.5 h, 1 µM turned out to be 102%.
